Data on 5 compounds can be found in paper PMC10419185 (International Journal of Molecular Sciences, 2023).

The test system of data set [1] is RML-infected hemizygous Tg37+/- mice. The settings on record: mouse, in vivo; cited from earlier work.
A further data set deals with scrapie-infected mice. The settings on record: cited from earlier work.
In data set [2] the test system is 263K scrapie-infected hamster cerebellar tissue slices. It is filed as cell-based, golden hamster. As to conditions: for PrPSc levels, comparison of c-Abl tyrosine kinase inhibitors: 10 and 20 μM for 5 weeks (Supplementary Figure S3).
The next data set is described as follows: in vivo. As to conditions: male, hamster; for half-life / Tmax: po; for half-life: T1/2; for Kp: B/P ratio (%).
For data set [3] the following is noted: hamster, in vivo; for T1/2: male, golden.
In data set [4] the test system is 263K scrapie strain. It is filed as in vivo, golden hamster. As to conditions: 100 mg/kg IG.
For another data set, the system named is ZW13-2-22L cells. It is filed as cell-based, mouse.
Data set [5] relates to ZW13-2, ZW13-2-22L and ZW13-2-139A cells.
The next data set has as its system ZW13-2-139A cells. It is filed as cell-based, mouse.
For data set [6], the system named is 22L scrapie-infected Tga20 cerebellar tissue slices. In kind it is cell-based, Tga20 mouse. As to conditions: 25 μM, slices cultured for 3 or 5 weeks.
The conditions of data set [7]: mouse, in vivo; cited from earlier work.
The subject of data set [8] is 263K scrapie strain. It is filed as in vivo, golden hamster.

Structures can show the parent of a compound that is named as a salt. Where two headings read alike, the source gives them in different places.

Turning to `O=C(CC(=O)c1ccccc1)c1ccccc1` [dibenzoylmethane], the survival entry in data set [1] is “significantly prolong survival without reducing the PrP^Sc levels”.
Turning to `Cc1ccc(NC(=O)c2ccc(CN3CCN(C)CC3)cc2)cc1Nc1nccc(-c2cccnc2)n1` [imatinib, imatinib mesylate], the “survival times of scrapie-infected mice” value in the data set on scrapie-infected mice is reported as “prolongs the survival times of scrapie-infected mice”. Also, in data set [2], the “PrPSc levels, comparison of c-Abl tyrosine kinase inhibitors” value is listed as “had no effect”.
As usually defined, the half-life is the time needed for the level to fall by half in the phase considered. Take `Cc1cn(-c2cc(NC(=O)c3ccc(C)c(Nc4nccc(-c5cccnc5)n4)c3)cc(C(F)(F)F)c2)cn1` [nilotinib, nilotinib hydrochloride monohydrate]: the “PrPSc levels, comparison of c-Abl tyrosine kinase inhibitors” value in [2] is given as “reduced PrP^Sc levels”. Also, the half-life in the data set “in vivo” (golden, 60 mg/kg) is 1 ± 0.4 h; in “in vivo” (golden, 100 mg/kg), 1.2 ± 0.2 h. Also, the T1/2 in [3] (po, 60 mg/kg) came out at 1.4 ± 0.3 h; in data set [3] (po, 100 mg/kg) it was 1.4 ± 0.7 h.
A word on the Tmax: it is the time at which the peak concentration occurs. With `Cc1cn(-c2cc(NC(=O)c3ccc(C)c(Nc4nccc(-c5cnccn5)n4)c3)cc(C(F)(F)F)c2)cn1` [radotinib, Radotinib hydrochloride], the “PrPSc levels in the brains, Western blot” value with 263K scrapie strain [4] (hamsters sacrificed at 146 dpi) is listed as “markedly decreased”; in the data set on 263K scrapie strain [4] (hamsters that died naturally), “also high”. In the data set on 263K scrapie strain [4] (sacrificed on 146 dpi, compared to control-treated infected hamsters), the “total PrP and PK-resistant PrPSc levels in the brains, immunohistochemical staining” value is reported as “definitely lower”. For the same compound, the PrPSc propagation result in data set [2] (0–40 μM for 5 weeks) is recorded as “reduced PrP^Sc propagation in 263K scrapie-infected hamster cerebellar tissue slices in a dose-dependent manner”; in [6], “reduced PrP^Sc propagation”. For the same compound, in [2] (10 μM, final 2 weeks of 5-week culture), the “PrPSc propagation, treatment in the final 2 weeks” value is on record as “effectively inhibited PrP^Sc propagation”. In addition, the “PrPSc propagation, one week of treatment” value in data set [2] (10 μM, final one week of 5-week culture) is reported as “did not reduce PrP^Sc propagation”. Besides, the “PrPSc levels, comparison of c-Abl tyrosine kinase inhibitors” value in data set [2] is listed as “reduced PrP^Sc accumulation”. Also, the “levels of PrPSc, later treatment” value in data set [2] (10–40 μM, 2 weeks without drug then final 3 weeks with radotinib) is listed as “dramatically reduced the levels of PrP^Sc”. Moreover, the Kp in “in vivo” (golden, 60 mg/kg, AUClast) stood at 0.137 ± 0.021; in the data set “in vivo” (golden, 60 mg/kg, Cmax), 0.137 ± 0.023; in “in vivo” (golden, 100 mg/kg, AUClast) it was 0.232 ± 0.155; in “in vivo” (golden, 100 mg/kg, Cmax), 0.149 ± 0.014; in the data set “in vivo” (60 mg/kg, AUClast), 0.137 ± 0.021; in “in vivo” (100 mg/kg, AUClast), 0.232 ± 0.155. Also, the Tmax was determined as 6 h in “in vivo” (golden, 60 mg/kg) and 6 h in the data set “in vivo” (golden, 100 mg/kg). Also, in “in vivo” (golden, 100 mg/kg), the half-life was 3.3 h. Also, the PrPSc levels result in the data set with ZW13-2-22L cells and with ZW13-2-139A cells was “mild reduction in PrP^Sc levels” each time. The cell viability result in data set [5] is “No decrease in viability”. For the same compound, the “blood–brain barrier crossing” value in data set [7] was “effectively crosses the blood–brain barrier”. Also, in data set [3], the “blood–brain barrier crossing in hamsters” value is “effectively crosses the BBB in hamsters”. Further, in data set [3] (po, 100 mg/kg), the “Tmax Median (range, h)” value is 6.0 ± 1.15 (6.0–8.0) h. Besides, the “survival time, range” value in the data set on 263K scrapie strain [8] (30 mg/kg IG, n = 8) was 140–154 dpi; with 263K scrapie strain [8] (60 mg/kg IG, n = 8), 112–208 dpi; with 263K scrapie strain [8] (100 mg/kg IG for the initial 10 weeks, n = 10) it was 112–191 dpi; in the data set on 263K scrapie strain [8] (100 mg/kg IG once a day, 6 days a week, n = 12), 124–223 dpi; in the data set on 263K scrapie strain [8] (100 mg/kg IG started 4 weeks postinoculation, n = 9), 126–210 dpi; with 263K scrapie strain [8] (100 mg/kg IG started 8 weeks postinoculation, n = 9) it was 114–181 dpi. For the same compound, the “survival time, range” value with 263K scrapie strain [8] (200 mg/kg IG, n = 8) is 112–210 dpi. The mean survival time is 145.1 ± 5.3 dpi in the data set on 263K scrapie strain [8] (30 mg/kg IG, n = 8, p = 0.05848); 161.0 ± 34.8 dpi in the data set on 263K scrapie strain [8] (60 mg/kg IG, n = 8, p = 0.03022); 158.0 ± 31.9 dpi with 263K scrapie strain [8] (100 mg/kg IG started 4 weeks postinoculation (4W-post), n = 9, p = 0.02333); 146.9 ± 23.7 dpi with 263K scrapie strain [8] (100 mg/kg IG started 8 weeks postinoculation (8W-post), n = 9, p = 0.08559); 157.0 ± 33.9 dpi with 263K scrapie strain [8] (200 mg/kg IG, n = 8, p = 0.01944). Further, the survival time is listed as 149.6 ± 25.3 dpi in the data set on 263K scrapie strain [8] (100 mg/kg IG for the initial 10 weeks (10W-initial), n = 10, p = 0.0446); 159.3 ± 28.6 dpi with 263K scrapie strain [8] (100 mg/kg IG once a day, 6 days a week, n = 12, p = 0.00217 vs vehicle (135.1 ± 9.9)); 155 ± 50 dpi with 263K scrapie strain [8] (intraperitoneal route, 10 mg/kg/day 6 days a week, n = 6, no significant difference). Besides, the “survival times (abstract)” value in the data set with 263K scrapie strain [8] (100 mg/kg intragastrically, nontreated 135 ± 9.9 days) amounted to 159 ± 28.6 days.
As to `O=c1n(CCCN2CCN(c3cccc(Cl)c3)CC2)nc2ccccn12` [trazodone hydrochloride], the survival entry in data set [1] is “significantly prolong survival without reducing the PrP^Sc levels”.
